“And” between values parts separate entries of the source, which are not always exact repeats. Equal entries are not always repeated.
Conditions: Crystal, Calculated from knudsen effusion weight loss

O=[N+]([O-])c1cc(Br)ccc1Br [1,4-dibromo-2-nitrobenzene]
Conditions	vapor or sublimation pressure
302.14 K	9.9e-05 kPa and 9.7e-05 kPa
304.16 K	0.000121 kPa and 0.000125 kPa and 0.000123 kPa
306.15 K	0.000167 kPa and 0.000166 kPa and 0.000163 kPa
308.15 K	0.000204 kPa and 0.000205 kPa and 0.000203 kPa
310.14 K	0.00026 kPa and 0.000264 kPa and 0.000261 kPa
312.14 K	0.000327 kPa and 0.000332 kPa and 0.000329 kPa
314.14 K	0.000418 kPa and 0.000419 kPa
316.14 K	0.000522 kPa and 0.000527 kPa and 0.000524 kPa
318.15 K	0.000666 kPa and 0.000675 kPa and 0.000673 kPa
320.15 K	0.000884 kPa and 0.000858 kPa and 0.000838 kPa
322.14 K	0.001072 kPa and 0.001068 kPa and 0.001063 kPa
